Test results from patent US20140005164A1, “WNT PATHWAY ANTAGONISTS” (Siena Biotech S.p.A., priority 2011, published 2014).
pIC50: −log10 of the molar value.

system: Wnt/β-catenin pathway; assay: Wnt reporter assay (TCF-Luciferase, Firefly) in DBTRG-05MG cells; format: cell-based; settings: Homo sapiens, 24 h, read-out: IC50 value in the reporter assay
Protocol: Three copies of a 4×TCF responsive elements were cloned into the pcDNA3.1/Zeo(+) vector (Invitrogen) after deletion of the constitutive CMV promoter and the insertion of the Firefly Luciferase from Promega (phFL-TK) to measure the activity of the Wnt/β-catenin pathway. The resulting plasmid was sequenced for quality control.
Cells were grown in 20 μg/ml Zeocin and 20 μg/ml Zeocin plus 30 μg/ml Hygromicin respectively. The cells were plated at a density of 6500 cells/well in poly-D-lysine pre-treated 96 well-plates.
36 hours after plating cells were incubated with 8-points dilutions compound (0.6% DMSO (v/v)). Each compound was tested in triplicate in single plate. Luciferase detection was done with Dual-Luciferase Reporter Assay System (Promega). 24 hours after compound addition, media was removed and 30 μl of 1× lysis buffer was added to each well for 30 minutes. To each well 45 μl of Dual-Glo Luciferase reagent (Promega) were added and after 1 second delay Luciferase was detected for 1 second using Mithras LB940 instrument. After Firefly luciferase quantification 45 μl of Dual Stop & Glo reagent (Promega) were added to each well and […] Renilla was detected using the same parameters described before.
Data were expressed as % of control for Firefly and Renilla luciferase independently; values were calculated using XLFit version 4.2, with a four parameters sigmoid function (XLFit model 205).

SMILES	pIC50
COc1cccc(COc2ccc3c(n2)n(C[C@H]2CC[C@H](C(=O)Nc4ccncc4)CC2)c(=O)n3C)c1 [Example 10, Trans-4-[5-(3-Methoxy-benzyloxy)-1-methyl-2-oxo-1,2-dihydro-imidazo[4,5-b]pyridin-3-ylmethyl]-cyclohexane carboxylic acid pyridin-4-ylamide]	4.64 to 7.46
COc1ccc2c(c1)n(C[C@H]1CC[C@H](C(=O)N3CCC4(CC3)OCCO4)CC1)c(=O)n2C [Example 86]	4.64 to 7.46

same assay, conditions: Homo sapiens, TCF-Luciferase (Firefly) read out, 24 hours after compound addition, range given with mixed units nM and μM, read-out: IC50 value in the reporter assay

SMILES	IC50 [nM]
COc1ccc2c(c1)n(C[C@H]1CC[C@H](C(=O)N3CCN(c4ncccn4)CC3)CC1)c(=O)n2C [Example 2, 5-Methoxy-1-methyl-3-[trans-4-(4-pyrimidin-2-yl-piperazine-1-carbonyl)-cyclohexylmethyl]-1,3-dihydro-benzoimidazol-2-one]	35 to 23000
COc1cc2c(cc1F)n(C)c(=O)n2C[C@H]1CC[C@H](c2nnc(-c3cccnc3)o2)CC1 [Example 175]	35 to 23000
COc1cc2c(cc1F)n(C)c(=O)n2C[C@H]1CC[C@H](C(=O)N2CC=C(c3cnn(C)c3)CC2)CC1 [Example 143]	35 to 23000
COCCOc1cc(NC(=O)[C@H]2CC[C@H](Cn3c(=O)n(C)c4ccc(Cl)cc43)CC2)ccn1 [Example 40]	35 to 23000
Cn1c(=O)n(C[C@H]2CC[C@H](C(=O)N3CCN(c4nccs4)CC3)CC2)c2cc(Cl)ccc21 [Example 53]	35 to 23000
Cn1c(=O)n(C[C@H]2CC[C@H](C(=O)N3CCN(c4cnccn4)CC3)CC2)c2cc(C#N)ccc21 [Example 155]	35 to 23000
COc1ccc2c(c1)n(C[C@H]1CC[C@H](C(=O)N3CCN(c4ccnc(F)c4)CC3)CC1)c(=O)n2C [Example 79]	35 to 23000
Cn1c(=O)n(C[C@H]2CC[C@H](C(=O)Nc3ccncc3)CC2)c2nc(C3CC3)ccc21 [Example 170]	35 to 23000
CN(C)c1ccc2c(n1)n(C[C@H]1CC[C@H](C(=O)Nc3ccncc3)CC1)c(=O)n2C [Example 120]	35 to 23000
Cn1c(=O)n(C[C@H]2CC[C@H](C(=O)Nc3ccncc3)CC2)c2cc(OCCC=C(F)F)ccc21 [Example 138]	35 to 23000
COCCOc1ccc2c(c1)n(C[C@H]1CC[C@H](c3nnc(-c4cccnc4)o3)CC1)c(=O)n2C [Example 146]	35 to 23000
Cn1c(=O)n(C[C@H]2CC[C@H](C(=O)Nc3ccncc3)CC2)c2cc(OCc3ccncc3)ccc21 [Example 151]	35 to 23000
Cn1c(=O)n(C[C@H]2CC[C@H](C(=O)N3CCN(c4ccncc4)CC3)CC2)c2cc(C(F)(F)F)ccc21 [Example 73]	35 to 23000
COc1ccc2c(c1)n(C[C@H]1CC[C@H](C(=O)Nc3ccnnc3)CC1)c(=O)n2C [Example 100]	35 to 23000
COc1cc2c(cc1F)n(C)c(=O)n2C[C@H]1CC[C@H](C(=O)N2CCN(c3cnn(C)c3)CC2)CC1 [Example 183]	35 to 23000
Cn1c(=O)n(C[C@H]2CC[C@H](C(=O)Nc3ccncc3)CC2)c2ncccc21 [Example 142]	35 to 23000
COc1ccc2c(c1)n(C[C@H]1CC[C@H](C(=O)Nc3ccc(OC)nc3)CC1)c(=O)n2C [Example 31]	35 to 23000
COCCOc1ccc2c(c1)n(C[C@H]1CC[C@H](c3nnc(-c4cccnn4)o3)CC1)c(=O)n2C [Example 163]	35 to 23000
COc1ccc2c(c1)n(C[C@H]1CC[C@H](C(=O)Nc3ccncc3F)CC1)c(=O)n2C [Example 38]	35 to 23000

SMILES	IC50 [nM]
COc1ccc(-c2nc([C@H]3CC[C@H](Cn4c(=O)n(C)c5ccc(OC)cc54)CC3)no2)cc1 [Example 18, 5-Methoxy-3-{trans-4-[5-(4-methoxy-phenyl)[1,2,4]oxadiazol-3-yl]-cyclohexylmethyl}-1-methyl-1,3-dihydro-benzoimidazol-2-one]	35 to 23000
COCCOc1ccc2c(n1)n(C[C@H]1CC[C@H](c3nnc(-c4cccnc4)o3)CC1)c(=O)n2C [Example 181]	35 to 23000
COc1ccc(COc2ccc3c(c2)n(C[C@H]2CC[C@H](C(=O)Nc4ccncc4)CC2)c(=O)n3C)cc1 [Example 6, Trans-4-[6-(4-Methoxy-benzyloxy)-3-methyl-2-oxo-2,3-dihydro-benzoimidazol-1-ylmethyl]-cyclohexanecarboxylic acid pyridin-4-ylamide]	35 to 23000
COc1ccc2c(c1)n(C[C@H]1CC[C@H](C(=O)Nc3cccnc3)CC1)c(=O)n2C [Example 37]	35 to 23000
COc1ccc2c(c1)n(C[C@H]1CC[C@H](C(=O)Nc3ccn(C)n3)CC1)c(=O)n2C [Example 133]	35 to 23000
Cn1c(=O)n(C[C@H]2CC[C@H](C(=O)N3CCN(c4ncccn4)CC3)CC2)c2c(Cl)cccc21 [Example 21]	35 to 23000
Cn1c(=O)n(C[C@H]2CC[C@H](C(=O)Nc3ccncc3)CC2)c2nc(OCCN3CCOCC3)ccc21 [Example 158]	35 to 23000
Cc1cnccc1NC(=O)[C@H]1CC[C@H](Cn2c(=O)n(C)c3ccc(C4CC4)cc32)CC1 [Example 70]	35 to 23000
Cn1c(=O)n(C[C@H]2CC[C@H](C(=O)Nc3ccncc3)CC2)c2nc(Br)ccc21 [Example 116]	35 to 23000
COCCOc1cc(NC(=O)[C@H]2CC[C@H](Cn3c(=O)n(C)c4ccc(OC)cc43)CC2)ccn1 [Example 36]	35 to 23000
CC(=O)N1CCN(C(=O)[C@H]2CC[C@H](Cn3c(=O)n(C)c4ccc(O)cc43)CC2)CC1 [Example 16, 3-[trans-4-(4-Acetyl-piperazine-1-carbonyl)-cyclohexylmethyl]-5-hydroxy-1-methyl-1,3-dihydro-benzoimidazol-2-one]	35 to 23000
COCCN(C)c1ccc2c(n1)n(C[C@H]1CC[C@H](C(=O)Nc3ccncc3)CC1)c(=O)n2C [Example 108]	35 to 23000
Cn1c(=O)n(C[C@H]2CC[C@H](C(=O)Nc3ccncc3)CC2)c2c(Cl)cccc21 [Example 28]	35 to 23000
COc1ccc2c(c1)n(C[C@H]1CC[C@H](C(=O)N3CCN(c4cc(C)nc(C)c4)CC3)CC1)c(=O)n2C [Example 94]	35 to 23000
COc1ccc2c(c1)n(C[C@H]1CC[C@H](C(=O)N3CCN(c4nccs4)CC3)CC1)c(=O)n2C [Example 27]	35 to 23000
COc1cc2c(cc1Cl)n(C[C@H]1CC[C@H](C(=O)N3CCN(c4ncccn4)CC3)CC1)c(=O)n2C [Example 46]	35 to 23000
COc1ccc2c(c1)n(C[C@H]1CC[C@H](C(=O)N3CC4CCC(C3)O4)CC1)c(=O)n2C [Example 63]	35 to 23000
COCCOc1cc2c(cc1F)n(C)c(=O)n2C[C@H]1CC[C@H](C(=O)N2CCOCC2)CC1 [Example 177]	35 to 23000
COc1ccc2c(c1)n(C[C@H]1CC[C@H](c3nnc(-c4ccc(C)nc4)o3)CC1)c(=O)n2C [Example 98]	35 to 23000

SMILES	IC50 [nM]
COc1cc2c(cc1F)n(C)c(=O)n2C[C@H]1CC[C@H](C(=O)N2C[C@@H](C)O[C@@H](C)C2)CC1 [Example 179]	35 to 23000
CCOCc1nnc([C@H]2CC[C@H](Cn3c(=O)n(C)c4ccc(OC)cc43)CC2)o1 [Example 107]	35 to 23000
COc1ccc2c(c1)n(C[C@H]1CC[C@H](c3nnc(-c4c(C)nn(C)c4C)o3)CC1)c(=O)n2C [Example 148]	35 to 23000
Cn1c(=O)n(C[C@H]2CC[C@H](C(=O)Nc3ccncc3)CC2)c2nc(OCC#N)ccc21 [Example 167]	35 to 23000
COc1ccc2c(c1)n(C[C@H]1CC[C@H](C(=O)N3CCN(c4ccc(C#N)nc4)CC3)CC1)c(=O)n2C [Example 88]	35 to 23000
Cc1cc(NC(=O)[C@H]2CC[C@H](Cn3c(=O)n(C)c4ccc(Cl)cc43)CC2)ccn1 [Example 39]	35 to 23000
COCC#Cc1ccc2c(n1)n(C[C@H]1CC[C@H](C(=O)N3CCN(C(C)=O)CC3)CC1)c(=O)n2C [Example 102]	35 to 23000
COc1ccc2c(c1)n(C[C@H]1CC[C@H](c3nnc(-c4cc(C)on4)o3)CC1)c(=O)n2C [Example 131]	35 to 23000
COc1ccc2c(c1)n(C[C@H]1CC[C@H](c3nnc(-c4ccncc4)o3)CC1)c(=O)n2C [Example 97]	35 to 23000
COc1cc(NC(=O)[C@H]2CC[C@H](Cn3c(=O)n(C)c4c(Cl)cccc43)CC2)ccn1 [Example 58]	35 to 23000
Cn1cc(C2=CCN(C(=O)[C@H]3CC[C@H](Cn4c(=O)n(C)c5ccc(C#N)cc54)CC3)CC2)cn1 [Example 154]	35 to 23000
COc1ccc2c(c1)n(C[C@H]1CC[C@H](C(=O)N3CCN(c4nccc(OC)n4)CC3)CC1)c(=O)n2C [Example 51]	35 to 23000
Cn1c(=O)n(C[C@H]2CC[C@H](C(=O)Nc3ccncc3)CC2)c2cc(OCCCC#N)ccc21 [Example 136]	35 to 23000
COc1ccc2c(n1)n(C[C@H]1CC[C@H](C(=O)N3CCN(c4ncccn4)CC3)CC1)c(=O)n2C [Example 26]	35 to 23000
COCCOc1ccc2c(c1)n(C[C@H]1CC[C@H](C(=O)Nc3ccncn3)CC1)c(=O)n2C [Example 122]	35 to 23000
CC(=O)N1CCN(C(=O)[C@H]2CC[C@H](Cn3c(=O)n(C)c4ccc(Br)nc43)CC2)CC1 [Example 3, 3-[trans 4-(4-Acetyl-piperazine-1-carbonyl)cyclohexylmethyl]-5-bromo-1-methyl-1,3-dihydro-imidazo[4,5-b]pyridin-2-one]	35 to 23000
COc1ccc2c(c1)n(C[C@H]1CC[C@H](C(=O)N3CCC(c4ncccn4)CC3)CC1)c(=O)n2C [Example 82]	35 to 23000
Cn1c(=O)n(C[C@H]2CC[C@H](C(=O)Nc3ccncc3)CC2)c2nc(OCC(F)(F)F)ccc21 [Example 171]	35 to 23000
